Patent US20160051493A1, “METHODS OF TREATMENT OF KERATINOCYTE-DERIVED LESIONS” (THE TRUSTEES OF COLUMBIA UNIVERSITY IN THE CITY OF NEW YORK, priority 2012, published 2016)
“Also recorded” adds a separate entry of the source. Read-outs that look alike come from different tables or passages of the source.

Experiments:
[1] = system: normal human epidermal keratinocytes; experiment: Ratiometric fura-2 live-cell calcium imaging of keratinocytes; format: cell-based; conditions: for % Responders (differentiated) Mean ± SEM: differentiated in 1.2 mM Ca2+, 4αPDD 3 μM, camphor 10 mM, 2-APB 100 μM; for % Responders (differentiated) Mean ± SEM / % Responders (undifferentiated) Mean ± SEM or SD: responders F340:F380 increase ≧20%; for % Responders (undifferentiated) Mean ± SEM or SD: saturating agonist (4αPDD 3 μM, camphor 10 mM, 2-APB 100 μM, capsaicin 1 μM, mustard oil 300 μM), SD for capsaicin and mustard oil
Experimental: (§1) Normal human keratinocytes were isolated from human foreskins by undergoing two enzymatic dissociation steps, first in dispase then in trypsin. Cells were cultured in EpiLife supplemented with human keratinocyte growth supplement (HKGS; Invitrogen). For all experiments with undifferentiated cells, keratinocytes were harvested or images at ˜75% confluency. Differentiation was induced by adding CaCl2 to the EpiLife media to reach a final [Ca2+] of 1.2 mM. Cells were typically cultured for 3 days under differentiation conditions before they were assayed. Keratinocytes were cultured for <5 passages. Purified Camphor (CAS #76-22-2), 2-APB (Tocris) or vehicle (1% EtOH)-containing media were used as indicated.
(§2) Human keratinocytes and SCC cells were washed in Ringer's solution (in mM: NaCl 140, KCl 5, D-glucose 10, HEPES 10, CaCl2 2, MgCl2 2, pH 7.2) and loaded with 5 μM fura-2AM and 1 μM pluronic (Invitrogen) for 30 minutes in the dark. During live-cell imaging, saturating concentrations of TRP agonists (10 mM Camphor, 100 μM 2-APB 1 μM Capsaicin, 300 μM Mustard oil or 3 μM 4αPDD) in Ringer's were used. Cells were imaged for 20 s to establish a baseline and then acutely treated with each agonist for 60 seconds. Imaging was performed on an Olympus IX81 microscope with a 20× (NA 0.17) objective and a Hamamatsu ORCA-R2 camera. 340- and 380-nm excitation and 540-nm emission filters were used to capture fura-2 fluorescence. Data are expressed as a ratio of fluorescent signals (340/380). All data acquisition was performed in MetaFluor. Data analysis was performed with custom algorithms in IgorPro. Cells with baseline levels ±2 SD above the mean were excluded from analysis as unhealthy. Responders were designated as cells whose 340/380 ratio was ≧20% above baseline.
TRP channels are selectively activated by endogenous and exogenous ligands at micromolar to millimolar concentrations. Since TRP channel activity increases over this range to allow graded Ca^2+ influx, receptor activity levels can be monitored by live-cell Ca^2+ imaging. A ratiometric calcium indicator (Fura-2) was employed to determine whether a panel of TRP-channel agonists elicited cytoplasmic calcium increases in human epidermal keratinocytes. (FIG. 1A-1E, FIG. 2A-2B, and Table 3).
Normal human keratinocytes were cultured in low-calcium media to promote proliferation or in 1.2-mM calcium media to induce differentiation. For live-cell imaging, keratinocytes were then washed and bathed in Ringer's solution containing 2 mM calcium so that calcium signals could be directly compared between cell populations.
In keratinocytes, increased intracellular calcium stimulates the terminal differentiation process. To determine whether camphor oil and its abundant constituents are directly bioactive on epithelial keratinocytes, a ratiometric Ca2+ indictor (Fura-2) was employed to test whether a panel of terpenes elicited cytoplasmic Ca2+ increases in undifferentiated human epidermal keratinocytes (FIG. 19A-19C). Keratinocytes were cultured according to our standard methods. For live-cell imaging, keratinocytes were bathed in Ringer's solution containing 2 mM Ca2+.

SCC-13 cells [2] = experiment: Live-cell calcium imaging of SCC cell line SCC-13; format: cell-based, human; conditions: 10 mM camphor; compared with proliferating keratinocytes
Experimental: as §2
(§3) Moreover, their responses to camphor mirror their respective levels of TRP channel expression.

SCC-39 cells [3] = experiment: Live-cell calcium imaging of SCC cell line SCC-39; format: cell-based, human; conditions: 10 mM camphor; compared with SCC-13 cells
Experimental: as §2, §3

[4] = system: normal human keratinocytes; experiment: Keratinocyte cell counts (DAPI), morphology and EdU proliferation assay after 24 h treatment; conditions: 24 hours
Experimental: as §1
Cells were treated with 2-APB or camphor for 24 hours at 37° C., exposed to EdU for 45 min, fixed and stained with DAPI for cell counting. EdU Click-It assays (Invitrogen) were used to assess cell-cycle entry. The cells were then fixed and stained with DAPI. Three fields per well were assayed via a 20× objective and there were 4 wells per treatment in each experiment. EdU=5-ethynyl-2′-deoxyuridine.
As Ca^2+ triggers the commitment switch from proliferation to differentiation in keratinocytes, it was reasoned that increasing intracellular calcium by incubating keratinocytes in TRP agonists might be sufficient to induce this cell-fate switch in low-calcium growth media. To test this hypothesis, normal human keratinocytes were cultured for 24 hours under low-Ca^2+ conditions in the presence of low (12.5 μM), half-maximal (50 μM) and saturating (100 μM) concentrations of 2-APB (FIG. 3A) or camphor (0-8 mM) (FIG. 3E). These TRP agonists were chosen because they reliably elicited intracellular calcium signaling in normal human keratinocytes (FIG. 1A-1E).
As camphor can activate both TRPV3 and TRPV1 channels, these experiments were repeated in the presence of a specific TRPV1 antagonist, AMG-9810 (Gavva et al., 2005).

keratin 10 (K10) = experiment: Western blot of keratin 10 in epidermal lysates after topical camphor; format: in vivo, FVB mice; conditions: 5 days
Experimental: To determine whether topical camphor treatment promotes keratinocyte differentiation in vivo, a separate cohort of adult female FVB mice were treated twice daily for a period of 5 days with increasing concentrations of topical camphor (0, 15%, 20% or 30% (wt/wt) camphor in acetone; N=3-4 mice per group). One day after the final topical dose, mice were sacrificed and epidermal lysates were prepared for immunoblot analysis according to standard protocols (Owens et al., J. Invest. Dermatol. 1996). […] Protein levels were detected by peroxidase activated luminol exposure to X-ray film and estimated by densitometry using NIH-Image J software. Levels of K10 were normalized to levels of beta-tubulin for each sample; therefore, data are expressed as the ratio of K10 to beta-tubulin (K10/beta-tubulin). […]
To determine whether topical camphor treatment promotes keratinocyte differentiation in vivo, adult female FVB mice (n=3-4 per group) were treated twice daily for a period of 5 days with increasing concentrations of topical camphor (15%, 20% or 30% (wt/wt)) or vehicle only. […] It was determined that topical camphor treatment upregulates levels of a keratinocyte terminal differentiation marker in vivo.

TRPV3 = conditions: Activation, cited from earlier work
TRPV1 = TRPV1 (Rattus norvegicus, UniProt O35433); conditions: Activation; cited from earlier work
TRPA1 = conditions: Inhibition; read-out: Effective concentration IC50; cited from earlier work
[5] = cited from earlier work
[6] = cited from earlier work; remark: listed apart in the source
[7] = cited from earlier work; remark: listed apart in the source
[8] = system: keratinocyte differentiation genes (LOR, FLG, IVL, TGM3); conditions: 50 μM, 24 hours
From the text: RNA was isolated using RNeasy Kit (Qiagen) and reversed transcribed. Four technical replicates were run for each primer set and cDNA sample using SYBR Green (Applied Biosystems) for quantitative readout. Complementary DNA was synthesized with oligo-dT primers and SuperScript III (Invitrogen). Primers were generated in Primer3. Primer pairs were optimized for qPCR and validated in control specimens. […] Melting curves were generated for all products to confirm a single amplicon for each product. To determine gene expression in each sample, cycle thresholds (CT) of the gene of interest were normalized to the reference gene GAPDH (ΔCT). Fold change was determined using the ΔΔCT method where vehicle or growth conditions were used as the calibrator (ΔΔCT=[(CT(target gene)−CT(reference gene)]−[CT(calibrator)]−CT(reference gene)]. All gene amplifications were performed in quadruplicate.

human keratinocytes = conditions: 50 μM, 7 days
Experimental: (§4) Organotypic human skin cultures and primary SCC lines were isolated from human SCCs and cultured as previously described (Bachelor et al., 2011). In brief, human fibroblasts were seeded in a collagen matrix on a 70 μm filter insert and incubated at 37° C. for 5-7 days. Human keratinocytes or SCC cells were then seeded on the apical surface of the fibroblast-collagen matrix and cultured for 2 days submerged in media to allow monolayer formation. The media was then removed from the apical surface (raising), exposing the keratinocytes or SCC cells to air. The cultures were maintained in this fashion for up to 14 days, and the media to the fibroblasts below was changed every 2-3 days. At the time of raising, 50 μM 2-APB or vehicle (1% EtOH) was added to the media.
Sections were fixed in 4% paraformaldehyde, paraffin embedded and sectioned at 8 μm. Hematoxylin and Eosin (H&E) stained sections were imaged with a bright field microscope equipped with a 10× (0.3 NA) and 20× (0.4 NA) objectives and an Axiocam color CCD camera (Zeiss AxioObserver.Z1). Epidermal thickness was assessed by measuring the nucleated layers with ImageJ software (NIH ImageJ). Number of invading cells was determined by counting the number of round nuclei below the basement membrane per 10× field (fibroblast nuclei are flatten and were excluded). […] Six random frames per section were quantified.

SCC-13 cells [9] = conditions: 50 μM, 14 days
Experimental: as §4
(§5) Sections were fixed in 4% paraformaldehyde, paraffin embedded and sectioned at 8 μm. Hematoxylin and Eosin (H&E) stained sections were imaged with a bright field microscope equipped with a 10× (0.3 NA) and 20× (0.4 NA) objectives and an Axiocam color CCD camera (Zeiss AxioObserver.Z1). Epidermal thickness was assessed by measuring the nucleated layers with ImageJ software (NIH ImageJ). Number of invading cells was determined by counting the number of round nuclei below the basement membrane per 10× field (fibroblast nuclei are flatten and were excluded). Four non-serial paraffin sections per experiment were examined. Six random frames per section were quantified.
(§6) As TRP-channels are expressed in human SCC keratinocytes and TRP agonists arrest keratinocyte proliferation, it was reasoned that TRP agonists might be candidates for SCC-targeted therapy. To test this notion, organotypic human skin cultures were seeded with SCC cells.

SCC-39 cells [10] = conditions: 50 μM, 14 days
Experimental: as §4, §5, §6

SCC-73 cells = conditions: 50 μM, 14 days
Experimental: as §4, §5, §6

TRPC1 = TRPC1 (Homo sapiens, UniProt P48995); conditions: cited from earlier work
ORAI1 = ORAI1 (Homo sapiens, UniProt Q96D31); conditions: Inhibition; cited from earlier work
skin tumors = conditions: mouse, in vivo; cited from earlier work
DNA = conditions: cited from earlier work

Sequence of TRPC1 (P48995 whole entry, species assumed): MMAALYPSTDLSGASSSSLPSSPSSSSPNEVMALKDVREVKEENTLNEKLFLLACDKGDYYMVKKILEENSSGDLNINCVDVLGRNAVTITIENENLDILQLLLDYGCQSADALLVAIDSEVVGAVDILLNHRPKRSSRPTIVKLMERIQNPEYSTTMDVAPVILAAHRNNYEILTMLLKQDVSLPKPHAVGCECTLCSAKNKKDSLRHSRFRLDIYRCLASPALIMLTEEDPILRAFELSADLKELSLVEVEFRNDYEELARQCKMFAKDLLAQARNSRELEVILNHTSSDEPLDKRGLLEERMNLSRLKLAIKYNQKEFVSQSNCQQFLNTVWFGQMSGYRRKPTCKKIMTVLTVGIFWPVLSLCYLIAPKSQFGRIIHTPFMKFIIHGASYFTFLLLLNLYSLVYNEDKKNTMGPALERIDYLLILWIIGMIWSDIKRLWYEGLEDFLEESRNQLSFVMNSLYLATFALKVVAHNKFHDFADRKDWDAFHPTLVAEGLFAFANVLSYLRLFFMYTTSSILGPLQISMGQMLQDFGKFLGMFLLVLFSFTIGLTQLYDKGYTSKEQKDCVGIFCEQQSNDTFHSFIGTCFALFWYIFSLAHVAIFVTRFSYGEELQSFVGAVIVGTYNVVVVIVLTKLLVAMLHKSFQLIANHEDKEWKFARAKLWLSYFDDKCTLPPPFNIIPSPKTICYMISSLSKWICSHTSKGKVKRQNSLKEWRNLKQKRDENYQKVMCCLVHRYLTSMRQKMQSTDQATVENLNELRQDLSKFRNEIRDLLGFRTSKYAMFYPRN
Sequence of TRPV1 (O35433 whole entry): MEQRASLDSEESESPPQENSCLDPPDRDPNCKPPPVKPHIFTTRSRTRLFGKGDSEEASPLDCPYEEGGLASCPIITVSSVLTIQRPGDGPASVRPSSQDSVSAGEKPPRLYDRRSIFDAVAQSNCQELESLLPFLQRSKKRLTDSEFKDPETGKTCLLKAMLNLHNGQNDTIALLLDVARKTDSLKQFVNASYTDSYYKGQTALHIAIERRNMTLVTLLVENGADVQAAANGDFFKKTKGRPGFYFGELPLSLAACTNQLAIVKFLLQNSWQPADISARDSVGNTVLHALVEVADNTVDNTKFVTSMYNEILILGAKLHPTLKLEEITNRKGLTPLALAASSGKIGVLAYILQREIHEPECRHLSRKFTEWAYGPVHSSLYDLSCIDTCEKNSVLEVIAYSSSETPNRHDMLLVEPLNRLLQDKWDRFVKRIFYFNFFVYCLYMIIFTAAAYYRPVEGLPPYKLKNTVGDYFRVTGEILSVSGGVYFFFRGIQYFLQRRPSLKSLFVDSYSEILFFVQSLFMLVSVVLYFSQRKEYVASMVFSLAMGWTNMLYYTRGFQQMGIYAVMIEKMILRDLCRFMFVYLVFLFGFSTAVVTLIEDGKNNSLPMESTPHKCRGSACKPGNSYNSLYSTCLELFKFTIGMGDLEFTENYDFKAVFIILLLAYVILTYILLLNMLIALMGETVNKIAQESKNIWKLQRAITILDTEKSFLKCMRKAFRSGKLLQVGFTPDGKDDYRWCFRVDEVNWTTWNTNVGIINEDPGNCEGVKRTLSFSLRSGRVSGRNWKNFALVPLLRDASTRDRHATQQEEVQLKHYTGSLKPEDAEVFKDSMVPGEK
Sequence of ORAI1 (Q96D31 whole entry, species assumed): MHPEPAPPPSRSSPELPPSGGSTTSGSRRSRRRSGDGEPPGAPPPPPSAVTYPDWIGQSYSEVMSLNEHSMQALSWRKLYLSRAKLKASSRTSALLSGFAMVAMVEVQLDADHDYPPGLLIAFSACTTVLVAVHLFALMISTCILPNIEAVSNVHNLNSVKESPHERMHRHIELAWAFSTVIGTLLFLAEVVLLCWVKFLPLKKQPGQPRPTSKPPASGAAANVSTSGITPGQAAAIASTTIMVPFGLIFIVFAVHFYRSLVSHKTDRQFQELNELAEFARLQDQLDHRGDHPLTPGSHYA

CC12CCC(CC1=O)C2(C)C (racemic) [Camphor, 1,7,7 Trimethylbicyclo[2.2.1]heptan-2-one]
proportion of cells showing Ca2+ increases, differentiated versus proliferating keratinocytes ([1]; 10 mM camphor): 5.7 fold | % Responders (differentiated) Mean ± SEM [1]: 37.5 ± 15.7% | magnitude of camphor-evoked responses, increase over baseline ([1]; differentiated keratinocytes): 78±1% | magnitude of camphor-evoked responses, increase over baseline ([1]; growth conditions): 55±1% | % Responders (undifferentiated) Mean ± SEM or SD ([1]; growth conditions): 6.5 ± 2.8% | camphor-evoked cytoplasmic calcium signals (SCC-13 cells [2]): increased | camphor-evoked calcium responses (SCC-39 cells [3]): significantly fewer | concentration that arrests proliferation without inducing necrotic changes [4]: 4 to 8 mM | expression of K10 (keratin 10 (K10); 15%, 20% or 30% (wt/wt) topical twice daily): increased with camphor treatment in a dose-dependent manner; also recorded: upregulates | K10 protein levels (K10/beta-tubulin) versus lower concentrations or vehicle (keratin 10 (K10); 30% (wt/wt) topical twice daily): significantly higher | Effective concentration Range (TRPV3): Range = 2-10 mM | Effective concentration Range (TRPV1): Range = 1-10 mM | IC50 (TRPA1): 68 µM | solubility in water [5]: slightly soluble | sensation on skin of volunteers ([6]; 20% solution in alcohol, normal skin temperatures (Green 1990)): no significant sensation of irritation or pain | doses reported to cause skin irritation as well as toxicity when ingested ([6]; in vivo): > 20% | absorption ([7]; after inhalation or dermal exposure (Baselt and Cravey 1990)): well absorbed | plasma concentrations ([7]; low-dose (46.80 mg) dermal application (Martin et al. 2004)): low plasma concentrations

NCCOB(c1ccccc1)c1ccccc1 [2-APB, 2-aminoethoxydiphenyl borate]
% Responders (differentiated) Mean ± SEM [1]: 13.0 ± 7.2% | % Responders (undifferentiated) Mean ± SEM or SD ([1]; growth conditions): 2.5 ± 0.9% | EdU incorporation ([4]; 12.5 μM): significant increased | cell population compared with vehicle-treated controls ([4]; 12.5 μM, low-Ca2+, one set of primary keratinocytes): 325+/−5% | EdU incorporation (cell-cycle arrest) ([4]; 50 μM): completely inhibited | cell number ([4]; 50 μM): slight reduction | keratinocyte morphology and cell numbers (cytotoxicity) ([4]; 100 μM): necrotic morphological changes and a loss of cell numbers | keratinocyte morphology ([4]; 12.5 or 50 μM): indistinguishable from vehicle-treated cells | concentration that arrests proliferation without inducing necrotic changes [4]: 0.05 mM | involucrin (IVL) expression [8]: little change | transglutaminase 3 (TGM3) expression [8]: little change | FLG transcript level induction versus vehicle ([8]; low-calcium growth media): more than 15 fold | LOR transcript level induction versus vehicle ([8]; low-calcium growth media): more than 15 fold | nucleated epidermal layers (human keratinocytes): one-third reduction | reduction of tumor formation above the dermis (SCC-13 cells [9]): > 37% | tumor thickness (SCC-13 cells [9]): reduced tumor thickness | inhibition of cell invasion versus vehicle-treated cultures (SCC-39 cells [10]): > 93% | reduction of tumor formation above the dermis (SCC-39 cells [10]): > 37% | tumor thickness (SCC-39 cells [10]): reduced tumor thickness | invasive nature and growth of tumor cells (SCC-73 cells): dramatically reduced | tumor thickness (SCC-73 cells): reduced tumor thickness | Effective concentration Range (TRPV3): Range = 3.2-320 μM | EC50 (TRPV3; read-out: Effective concentration EC50): 28 µM | Effective concentration Range (TRPC1; Activation): Range = 5-10 μM | Effective concentration Range (TRPC1; Inhibition): Range = 50-100 μM | Effective concentration Range (ORAI1): Range = 5-50 μM

Nc1ccc(C(=O)O)cc1 [p-Aminobenzoic acid]
Results of safety: against skin tumors in mice (skin tumors): Protects | Results of safety: DNA defects (DNA): increase
